Measured values as given in patent US20230115907A1, “HETEROCYCLIC COMPOUND AND PHARMACEUTICAL COMPOSITION, PREPARATION METHOD, INTERMEDIATE AND USE THEREOF” (EVOPOINT BIOSCIENCES CO., LTD., priority 2019, published 2023).

How the values were obtained:
[1] = In vivo pharmacokinetics after intragastric administration in rats; parameters: species or system SD rats; conditions: single intragastric administration, 40 mg/kg; for AUC(0-inf) / AUC(0-t) / Cmax / Tmax / half-life: male, SD, rat, po, plasma; for Cmax and AUC compared with the control compound SZ-015200: in words
Method: (§1) Male SD rats were divided into different groups with 3 rats in each group, and single intragastric administration was conducted for each group. The compounds were each formulated with 10% DMSO/10% Solutol/80% (20% Captisol) to reach an appropriate concentration and then administered intragastrically at 40 mg/kg. Blood was taken 5 min, 15 min, 30 min, 1 h, 2 h, 4 h, 6 h, 8 h and 24 h after administration, and then subjected to EDTA-K2 anticoagulation. The concentration of the compound in the plasma was quantitatively detected by an LC-MS/MS method.

HCC70 cells = experiment: Inhibition of cell proliferation, CellTiter-Glo, HCC70; format: cell-based; conditions: Homo sapiens, HCC70, 72 h
Method: (§2) The compounds were each prepared with 100% DMSO into 10 mM mother liquor.
(§3) HCC70 cells and OVCAR3 cells were digested and counted. Cells were diluted to an appropriate concentration according to cell density. 100 μL of cells were added to each well of a 96-well plate. Medium wells served as blank control (Min). The cells were incubated overnight in an incubator at 37° C./5% CO2.
(§4) A 200-fold stock solution of a compound was prepared with DMSO, and the compound was diluted with growth medium to a 3-fold stock solution, i.e., […] of each of 200-fold stock solutions of compound at different concentrations was added to 197 μL of medium. 50 μL of diluted compound was added to each well and the mixture was incubated at 37° C./5% CO2 for 72 h.
(§5) The 96-well plate was equilibrated to room temperature before detection. 40 μL of CellTiter-Glo solution was added to each well. The mixture was mixed for 2 min using a horizontal shaker to induce cell lysis. The mixture was incubated at room temperature for 60 min to stabilize […] signals. Fluorescence values were read on ENVISION.
(§6) (1) Data was analyzed by GraphPad Prism 5
(§7) (2) % inhibition rate=(maximum signal−compound signal)/(maximum signal−minimum signal)×100
(§8) (3) Maximum signal: signal of DMSO well
(§9) (4) Minimum signal: signal of medium well
(§10) The effect of SZ-015200, SZ-015256 and SZ-015268 on cell proliferation after incubation with HCC70, OVCAR-3, HCT116 and HCC1806 cells for 3 days was detected according to the method described in Efficacy Example 2, and the results are shown in Table 3.

HCC1806 cells = experiment: Inhibition of cell proliferation, CellTiter-Glo, HCC1806; format: cell-based; conditions: Homo sapiens, HCC1806, 72 h; Efficacy Example 3 (Table 3), incubation for 3 days
Method: as §3, §4, §5, §7, §10

[2] = test system: human colon cancer cells HCT116 xenograft tumor; experiment: In vivo efficacy in subcutaneous xenograft tumor model of human colon cancer cells HCT116; parameters: species or system BALB/c nude mice; conditions: for Tumor inhibition rate (TGI): day 21; for % proliferation percentage of tumor volume (Day 21 after grouping) / Tumor volume (day 21 after grouping): mean value ± standard error; for Effect on inhibiting tumor proliferation compared with the control compound SZ-015200 (in words): HCT116 xenograft, p.o. QD × 21 days; for Anti-tumor effect (in words): SZ-015256: 25 mg/kg and 15 mg/kg treatment groups, SZ-015268 and SZ-015200: 25 mg/kg treatment group
Method: HCT116 tumor cells used in this test were purchased from ATCC. HCT116 tumor cells were cultured in McCoy's 5a medium containing inactivated 10% fetal bovine serum, 100 U/mL penicillin, 100 μg/mL streptomycin and 2 mM glutamine in an incubator at 37° C./5% CO2. The cells were divided and transferred to other bottles every 3 to 4 days for passaging when the culture bottle was full of cells. The tumor cells in the logarithmic growth phase were used for tumor seeding in vivo.
HCT116 tumor cells resuspended in serum-free McCoy's 5a culture solution were seeded subcutaneously into the right costal part of male BALB/c nude mice at 5×10^6/0.1 mL. When the tumor grew to 101 mm^3, animals with uniform tumor volume were selected and divided into groups with 8 animals in each group for administration, and the specific administration regimens are shown in Table 6 below.
Tumor volume: the long and short diameters of the tumor were measured twice every week using a vernier caliper for calculating the tumor volume, and the calculation formula was:
volume=0.5×long diameter×short diameter^2.
[…]=mean value of relative tumor volume of treatment group/mean value of relative tumor volume of control group×100
Tumor growth inhibition rate(TGI,%)=(1−T/C)×100
Statistical analysis between groups was performed for tumor volume using One-Way ANOVA test, and a significant difference was considered to be present when p<0.05.

HCT116 cells = experiment: Inhibition of cell proliferation, CellTiter-Glo, HCT116; format: cell-based; conditions: Homo sapiens, HCT-116, 72 h; Efficacy Example 3 (Table 3), incubation for 3 days
Method: as §3, §4, §5, §7, §10

CDK7/Cyclin H/MAT1 = CDK7/Cyclin H/MAT1 (Homo sapiens, UniProt P50613); experiment: CDK7 inhibition, mobility shift assay
Method: The initial concentration of compound was 10 μM, and the compound was 3-fold diluted to obtain 10 concentrations. Duplicate wells were set for the assay, and the pre-incubation time of compound and enzyme was 60 min.
Compound powders were dissolved in 100% DMSO to prepare 10 mM stock solution, which was 3-fold diluted with DMSO, with 0.5 mM as the initial concentration, to obtain 10 concentration gradients of compound solutions.
(1) Compound at each concentration was 8.3-fold diluted with ddH2O, and then 2 μL of each compound solution and positive control were added to a 384-well plate.
(2) 5 μL of a kinase working solution (CDK7/Cyclin H/MAT1) was added to the compound wells and positive control wells to make the final concentration of CDK7 be 3 nM.
(3) The plate was pre-incubated at room temperature for 60 min.
(5) The 384-well plate was incubated at 27° C. for 36 min.
(6) 4 μL of 80 mM EDTA was added to terminate the reaction.
(7) The conversion rates were read using a Caliper EZ Reader II.

OVCAR3 cells = experiment: Inhibition of cell proliferation, CellTiter-Glo, OVCAR3; format: cell-based; conditions: Homo sapiens, OVCAR-3, 72 h
Method: as §2, §3, §4, §5, §6, §7, §8, §9, §10

[3] = In vivo pharmacokinetics after intragastric administration in mice; conditions: single intragastric administration, 20 mg/kg; for AUC(0-inf) / AUC(0-t) / Cmax / Tmax / half-life: male, ICR, mouse, po, plasma; for Cmax and AUC compared with the control compound SZ-015200: in words
Method: as §1, with “1CR mice” for “SD rats”, “mice” for “rats”, “([…]” for “(20%”, “20” for “40”

[4] = Efficacy Example 2 (Table 2), 72 h incubation
[5] = Efficacy Example 3 (Table 3), incubation for 3 days

Sequence of CDK7/Cyclin H/MAT1 (P50613 whole entry): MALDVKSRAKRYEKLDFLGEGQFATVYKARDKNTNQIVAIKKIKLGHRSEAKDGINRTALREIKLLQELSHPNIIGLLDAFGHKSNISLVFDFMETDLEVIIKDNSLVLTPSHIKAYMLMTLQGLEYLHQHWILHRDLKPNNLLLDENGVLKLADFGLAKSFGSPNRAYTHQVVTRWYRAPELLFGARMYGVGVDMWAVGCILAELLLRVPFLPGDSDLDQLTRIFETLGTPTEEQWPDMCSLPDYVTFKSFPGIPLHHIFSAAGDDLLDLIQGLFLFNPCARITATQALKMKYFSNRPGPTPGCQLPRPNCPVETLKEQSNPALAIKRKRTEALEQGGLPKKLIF
Sequence of CDK7/Cyclin H/MAT1 (P51946 whole entry partner): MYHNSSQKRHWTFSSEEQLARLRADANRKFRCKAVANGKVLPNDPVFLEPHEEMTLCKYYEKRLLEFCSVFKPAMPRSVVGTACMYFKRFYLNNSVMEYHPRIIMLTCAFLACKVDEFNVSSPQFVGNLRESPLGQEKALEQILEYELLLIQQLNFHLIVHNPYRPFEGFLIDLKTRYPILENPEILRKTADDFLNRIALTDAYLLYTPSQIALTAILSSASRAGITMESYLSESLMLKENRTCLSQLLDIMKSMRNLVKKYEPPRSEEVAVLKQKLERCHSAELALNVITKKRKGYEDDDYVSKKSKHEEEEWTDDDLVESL
Sequence of CDK7/Cyclin H/MAT1 (P51948 whole entry partner): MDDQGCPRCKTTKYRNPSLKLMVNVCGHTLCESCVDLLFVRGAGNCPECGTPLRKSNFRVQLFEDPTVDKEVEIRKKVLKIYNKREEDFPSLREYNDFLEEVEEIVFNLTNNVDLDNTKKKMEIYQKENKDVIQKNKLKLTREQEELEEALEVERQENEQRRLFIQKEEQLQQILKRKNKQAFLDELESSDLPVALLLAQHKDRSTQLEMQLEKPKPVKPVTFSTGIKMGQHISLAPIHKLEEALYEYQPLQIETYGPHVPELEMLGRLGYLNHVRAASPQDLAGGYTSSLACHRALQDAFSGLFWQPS

SMILES | AUC(0-inf) [1] | AUC(0-t) [1] | Cmax [1] | Tmax [1] | half-life [1] | Cmax and AUC compared with the control compound SZ-015200 [1] | IC50 (HCC70 cells; [4]) | IC50 (HCC70 cells; [5]) | IC50 (HCC1806 cells) | Tumor inhibition rate (TGI) ([2]; 25 mg/kg p.o. QD × 21 days) | % proliferation percentage of tumor volume (Day 21 after grouping) ([2]; 25 mg/kg p.o. QD × 21 days) | Tumor volume (day 21 after grouping) ([2]; 25 mg/kg p.o. QD × 21 days) | Effect on inhibiting tumor proliferation compared with the control compound SZ-015200 (in words) [2] | Anti-tumor effect (in words) [2] | IC50 (HCT116 cells) | IC50 (OVCAR3 cells; [4]) | IC50 (OVCAR3 cells; [5]) | AUC(0-inf) [3] | AUC(0-t) [3] | Cmax [3] | also measured
Cc1nc(NC2CCN(C(=O)O[C@H]3CCN(C(=O)/C=C/CN(C)C)C3)CC2)n2ncc(C(C)C)c2n1 [SZ-015256, (S,E)-1-(4-(dimethylamino)but-2-enoyl)pyrrolidin-3-yl 4-((8-isopropyl-2-methylpyrazolo[1,5-a][1,3,5]triazin-4-yl)amino)piperidine-1-carboxylate] | 7880 ng·h/mL | 7830 ng·h/mL | 783 ng/mL | 4.67 h | 2.99 h | The results show that compared with the control compound SZ-015200, the Cmax and the AUC of SZ-015256 and SZ-015268 in rats after single intragastric administration were significantly higher, which indicates that SZ-015256 and SZ-015268 have better pharmacokinetic properties. | 175 nM | 50.9 nM | 44.5 nM | 81.9% | 192 ± 38% | 201 ± 43 mm^3 | stronger effect on inhibiting tumor proliferation | significant anti-tumor effect | 25.3 nM | 75.1 nM | 45.3 nM | 6380 ng·h/mL | 6260 ng·h/mL | 3380 ng/mL | Tumor inhibition rate (TGI) ([2]; 15 mg/kg p.o. QD × 21 days): 61.6%; % proliferation percentage of tumor volume (Day 21 after grouping) ([2]; 15 mg/kg p.o. QD × 21 days): 407 ± 40%; Tumor volume (day 21 after grouping) ([2]; 15 mg/kg p.o. QD × 21 days): 402 ± 42 mm^3; IC50 (CDK7/Cyclin H/MAT1): 54.3 nM; Tmax [3]: 0.5 h; half-life [3]: 1.48 h; Cmax and AUC compared with the control compound SZ-015200 [3]: significantly higher
Cc1nc(NC2CCN(C(=O)O[C@H]3CCN(C(=O)/C=C/CN(C)C)C3)CC2)c2ncc(C(C)C)n2n1 [SZ-015268, (S,E)-1-(4-(dimethylamino)but-2-enoyl)pyrrolidin-3-yl 4-((7-isopropyl-2-methylimidazo[2,1-f][1,2,4]triazin-4-yl)amino)piperidin-1-carboxylate] | 4510 ng·h/mL | 4450 ng·h/mL | 543 ng/mL | 4 h | 3.92 h | The results show that compared with the control compound SZ-015200, the Cmax and the AUC of SZ-015256 and SZ-015268 in rats after single intragastric administration were significantly higher, which indicates that SZ-015256 and SZ-015268 have better pharmacokinetic properties. | 57.5 nM | 33 nM | 61.5 nM | 84.3% | 167 ± 39% | 172 ± 41 mm^3 | stronger effect on inhibiting tumor proliferation | significant anti-tumor effect | 12.5 nM | 29.9 nM | 80.6 nM | 3150 ng·h/mL | 3100 ng·h/mL | 1540 ng/mL | Tmax [3]: 0.42 h; half-life [3]: 1.39 h; Cmax and AUC compared with the control compound SZ-015200 [3]: not lower
